How the values were obtained:
N0-STZ rats [1] = assay: Oral Glucose Tolerance Test (OGTT) in the N0-STZ rat model after 5 days of gavage; type: in vivo; details: Example 2a, 2 × 100 mg/kg daily for 5 days
Description: The N0-STZ rat model is described in Portha B., Picon L., Rosselin G., Diabetologia, 1979, 17, 371-377. The Oral Glucose Tolerance Test (OGTT) is described in Wilkerson: Diagnosis, oral glucose tolerance test: in Diabetes mellitus, Diagnosis & Treatment, p.31-34, NY, American Diabetes Association, 1964. During 5 days an appropriate dose of the extract is gavaged into the N0-STZ rats two times a day. Three hours after the last administration the Oral Glucose Tolerance Test (OGTT) is performed in awake rats by administering 2 g glucose/kg body weight. Blood samples are collected just before glucose administration (0 min) and after 30, 60 90, 120 and 180 minutes.
The N0-STZ rat model is used to evaluate the efficacy of the extract of example 1. During 5 days an appropriate dose of the drug (table 1) is gavaged into 8 N0-STZ rats two times a day. Three hours after the last administration the Oral Glucose Tolerance Test (OGTr) is performed in awake rats by administering 2 g glucose/kg body weight. Blood samples are collected just before glucose administration (0 min) and after 30, 60 90 and 120 minutes.
The N0-STZ rat model is used to evaluate the efficacy of the extract of example 1. During 5 days an appropriate dose of the drug (table 5) is gavaged into 8 N0-STZ rats. Three hours after the last administration the Oral Glucose Tolerance Test (OGTT) is performed in awake rats by administering 2 g glucose/kg body weight. Blood samples are collected just before glucose administration (0 min) and after 30, 60 90 and 120 minutes.

N0-STZ rats [2] = assay: Fasting plasma glucose concentration on day 5 in the N0-STZ rat model; type: in vivo; details: 2 × 100 mg/kg daily; day 5, after 2 hour fasting, before glucose; control −14
Description: The fasting plasma glucose concentration (table 4) is measured from blood samples obtained after a 2 hour fasting period on day 5 before the administration of glucose. In addition, preferred extracts of the invention in hand show a significant decrease of the fasting plasma glucose concentration versus initial basal glycemia. Preferred extracts show a decrease of the fasting plasma glucose concentration of at least 10%, more preferred of at least 28% versus initial basal glycemia.
The fasting plasma glucose concentration (table 4) is measured from blood samples obtained after a 2 hour fasting period on day 5 before the administration of glucose.

CN(C)C(=N)N=C(N)N [example 24, metformin]
OGTT area under curve: deviation from control (23) (N0-STZ rats [1]): −18%
OGTT: Area under curve (Integration of the Plasma Glucose Level versus time, table 2) (N0-STZ rats [1]; 0-120 min): 26363
Plasma Glucose Level (N0-STZ rats [1]; 30 min after 2 g glucose/kg): 245 mg/dL
Plasma Glucose Level (N0-STZ rats [1]; 60 min after 2 g glucose/kg): 242 mg/dL
Plasma Glucose Level (N0-STZ rats [1]; 90 min after 2 g glucose/kg): 223 mg/dL
Plasma Glucose Level (N0-STZ rats [1]; 120 min after 2 g glucose/kg): 207 mg/dL
Plasma Glucose Level (N0-STZ rats [1]; time −0 min (just before 2 g glucose/kg)): 143 mg/dL
Effect on fasting Plasma Glucose Concentration in % of variation versus initial basal glycemia (N0-STZ rats [2]): −31%

From patent US20040170714A1, “Bauhinia extracts” (priority 2001, published 2004)
